From patent publication US7745446B2, “Pyrazolo[1,5-c]pyrimidines” (Bayer Schering Pharma Aktiengesellschaft, priority 2004, dated 2010)
Read-outs that look alike come from different tables or passages of the source.

What was measured:
[1] = biological target: T1, full-length Akt1 (inactive) (Homo sapiens, UniProt P31749); assay: Biochemical Akt1 assay (full-length Akt1 inactive, PDK1-dependent activation, IMAP); conditions: PDK1 and PIP3 vesicles, 50 μM ATP; read-out: Inhibition of Akt1 activation (full-length Akt1, inactive): IC50
T1 construct: recombinant full-length human Akt1 a containing N-terminal His6 tag; His6 (N); purchased Upstate, UK #14-279; host or cells: baculovirus infected Sf21 insect cells
T1 sequence (P31749 whole entry): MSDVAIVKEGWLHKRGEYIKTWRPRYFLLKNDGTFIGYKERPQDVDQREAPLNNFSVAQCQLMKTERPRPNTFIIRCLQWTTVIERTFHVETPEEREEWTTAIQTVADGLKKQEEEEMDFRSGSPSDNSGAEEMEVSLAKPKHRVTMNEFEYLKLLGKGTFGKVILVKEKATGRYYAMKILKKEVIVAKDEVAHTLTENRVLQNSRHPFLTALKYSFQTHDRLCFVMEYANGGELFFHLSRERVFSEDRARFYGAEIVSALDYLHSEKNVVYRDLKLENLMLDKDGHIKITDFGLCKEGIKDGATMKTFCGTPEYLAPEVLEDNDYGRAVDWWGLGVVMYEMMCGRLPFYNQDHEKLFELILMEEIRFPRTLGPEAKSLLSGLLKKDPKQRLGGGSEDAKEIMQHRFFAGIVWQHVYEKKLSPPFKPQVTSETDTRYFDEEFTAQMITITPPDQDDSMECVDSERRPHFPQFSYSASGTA
Procedure: The enzyme is purified using Ni2+/NTA-agarose (Upstate, UK; #14-279).
The enzyme is purified using Ni2+/NTA-agarose.
PDK1-dependent activation and subsequent enzymatic activity of Akt1: Activity of purified human Akt1 is routinely measured in an assay in which the enzyme is first activated by PDK1 in the presence of phosphatidylinositol-3,4,5-triphosphate (PIP3). Once activated, Akt1-dependent phosphorylation of a fluorescence labelled peptide substrate is measured by fluorescence polarisation using the IMAP technology (Molecular Devices).
The phospholipids are prepared as follows: 5 mg DOPC/DOPS are solved in 200 μl 10 mM Tris (pH 7.4) and 300 μg PIP3 are resuspended in 950 μl 10 mM Tris (pH 7.4) by pipetting. 950 μl solved PIP3 are mixed with 50 μl solved DOPC/DOPS and incubated for 2 h at a temperature below 20° C. Then the mixture is subjected to sonification for 30 min. at max. power until a translucent phopholipid vesicle preparation is obtained. Aliquots of the vesicle suspension are frozen at -80° C. until needed, likewise the solved DOPC/DOPS.
Assays are performed in 384-well plates. Incubations are carried out for 60 min. at room temperature. The reaction buffer mixture contained in a final volume of 25 μl: 10 mM Tris pH 7,4, 10 mM MgCl2. 1 mM DTT, and 0.1 mg/ml BSA. In contrast the activation buffer contained: 50 ng/well Akt1, 20 ng/well PDK1, 1.25 μM peptide substrat, 50 μM ATP, and phospholipid vesicles (1:20). Test compounds are added from stock solutions in DMSO before activation of Akt1 by PDK1. After the incubation the beads (IMAP binding reagent; Molecular Devices; 1:167) are added and the fluorescence polarization is measured (excitation 485 nm, emission 530 nm).

GST-ΔPH-Akt1 = biological target: T2, GST-ΔPH-Akt1 (Homo sapiens, UniProt P31749); assay: Biochemical ΔPH Akt1 assay (flashplate, 33P incorporation into histone 2B); conditions: 100 nM ATP, histone 2B substrate; read-out: ΔPHAkt1 inhibition: IC50
T2 construct: named GST-deltaPH-Akt1; 107-480aa; cloned in the pAcGl vector; GST (N); made in house; host or cells: SF9 insect cells (baculovirus vector pAcG1), co-expressed with PDK1
T2 sequence (P31749 107-480, stated change not applied): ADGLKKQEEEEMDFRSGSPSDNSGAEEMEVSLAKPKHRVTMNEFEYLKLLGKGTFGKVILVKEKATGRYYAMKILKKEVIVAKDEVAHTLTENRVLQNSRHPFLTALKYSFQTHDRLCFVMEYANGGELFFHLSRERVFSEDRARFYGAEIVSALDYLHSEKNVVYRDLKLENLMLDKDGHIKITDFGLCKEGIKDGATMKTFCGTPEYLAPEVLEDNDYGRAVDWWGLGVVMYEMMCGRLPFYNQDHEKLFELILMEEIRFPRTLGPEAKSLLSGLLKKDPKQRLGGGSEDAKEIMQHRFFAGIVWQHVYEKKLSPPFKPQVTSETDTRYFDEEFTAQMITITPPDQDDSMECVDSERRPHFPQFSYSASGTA
Summary of the method: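 The enzyme was GST-fused human Akt1 lacking the PH domain (aa 107–480), co-expressed with PDK1 in Sf9 cells, at 100 ng/well, with 100 ng/well histone 2B substrate and 100 nM ATP including 33P-ATP. 33P incorporation was counted on scintillant-coated flashplates.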

[2] = biological target: T3, full-length Akt1 (active) (Homo sapiens, UniProt P31749); assay: Biochemical Akt1 assay (full-length Akt1 active, flashplate, Crosstide); conditions: 100 nM ATP, Crosstide substrate; read-out: Akt1 inhibition (full-length Akt1, active): IC50
T3 construct: recombinant full-length human Akt1, containing N-terminal His6 tag; His6 (N); GST (N); purchased Upstate, UK #14-276; host or cells: baculovirus infected Sf21 insect cells
T3 sequence (P31749 whole entry): as the sequence (P31749 whole entry) above
From the text: For the biochemical Akt1 assay recombinant full-length human Akt1, containing N-terminal His6 tag is cloned and expressed in baculovirus infected Sf21 insect cells. Akt1 is activated with GST-MAPKAP-K2 and PDK1, and repurified on Ni2+/NTA-agrose and glutathioneagarose (Upstate, UK; #14-276).
In order to study the inhibition of Akt1 (full-length version) according to the invention, a flashplate-based assay has been developed.
The full-length Akt1 assay is a biochemical assay using Akt1 N-terminally fused to GST and co-expressed with PDKI in insect cells. The Akt1 assay is run in 96 well plates by incubating 500 ng/well GST-Akt1, 1 μM Crosstide (N-terminally biotinylated synthetic peptide (KGSGSGRPRTSSFAEG) Upstate, #12-385) as substrate, 10 μl of test compound (test compounds were dissolved as 10 mM solutions in dimethylsulfoxide (DMSO) and subsequently diluted) and 100 nM ATP (including ^33P-ATP) in 100 μl of reaction buffer (50 mM HEPES, pH7,5; 3 mM MgCl2; 3 mM MnCl2; 3 μM Na-Orthovanadat; 1 mM DTT; 1 μg/ml PEG8000) for 60 minutes at 30° C. in 96 well microtiter plates. The reactions are terminated by adding 100 μl stopping buffer (5M NaCl, 35 mM EDTA pH 8.0) for 5 minutes. 190μl of the reaction mixture are transferred into streptavidin-coated Flashplates (Perkin Elmer, #SMP-103) and incubated for further 30 minutes at room temperature. The plates are washed 3 times by using washing buffer (0.9% NaCl). Relying on the incorporation of ^33P into the peptide substrate crosstide, the detection is based on the specific binding of the biotinylated peptide to the streptavidin-coated surface of scintillator-coated flash plates (NEN, USA; #SMP-103). This phosphorylation is measured by counting the plate for 60 sec. using a plate reader (Wallac Microbeta; Perkin Elmer, USA).

MCF7 cells [3] = assay: Cellular proliferation/cytotoxicity assay (Alamar Blue), MCF7; conditions: Homo sapiens, MCF7, 48 h, read-out: Anti-proliferative/cytotoxic activity: IC50 MCF7
Procedure: (§1) The anti-proliferative activity of the compounds as described herein, is evaluated using MCF7 and MDA-MB-468 (ATCC HTB-22 and HTB-132) cell lines and the Alamar Blue (Resazurin) cell viability assay (O'Brien et al. Eur J Biochem 267, 5421-5426, 2000). Resazurin is reduced to the fluorescent resorufin by cellular dehydrogenase activity, correlating with viable, proliferating cells. Test compounds are dissolved as 10 mM solutions in DMSO and subsequently diluted. MCF7 or MDA-MB-434 cells were seeded into 96 well flat bottom plates at a density of 10000 cells/well (MCF7) or 5000 cells/well (MDA-MB-468) in a volume of 200 μl/well. 24 hours after seeding, 1 μl each of the compound dilutions are added into each well of the 96 well plates. Each compound dilution is tested as at least as duplicates. Wells containing untreated control cells were filled with 200 μl DMEM containing 0.5% v:v DMSO. The cells are then incubated with the substances for 48 hours at 37° C. in a humidified atmosphere containing 5% carbon dioxide. To determine cell viability, 20 μl of a Resazurin solution (Sigma; 90 mg/l) are added. After 4 hours incubation at 37° C. the fluorescence is measured at an extinction of 544 nm and an emission of 590 nm (Wallac Victor2; Perkin Elmer, USA). For the calculation of the cell viability the emission value from untreated cells is set as 100% viability and the emission rates of treated cells are set in relation to the values of untreated cells. Viabilities are expressed as % values. The corresponding IC50 values of the compounds for cytotoxic activity are determined from the concentration-effect curves by means of non-linear regression. The analysis of the data is performed using a biostatistical program (GraphPad Prism, USA).

PKA = biological target: T4, PKA (Homo sapiens, UniProt P17612); assay: Biochemical PKA assay (flashplate); conditions: 100 nM ATP; read-out: PKA inhibition: −log IC50 (converted)
T4 construct: His; purchased PanVera, USA #R3791; host or cells: E. coli
Procedure: For the biochemical PKA assay the catalytic subunit of PKA is expressed in E. coli as a His-tagged human recombinant protein and purified accordingly (PanVera, USA; #R3791).
In order to study the kinase inhibition activity of the compounds according to the invention, a flashplate-based assay has been developed for the serine/threonine kinase, PKA. The assay is run in 96 well plates by incubating 1 ng/well His-PKA (PanVera, USA; #R3791), 0.5 μM/well PKA peptide (#12-394; Upstate, USA) as substrate, 10 μl of compound of invention (test compounds were dissolved as 10 mM solutions in dimethylsulfoxide (DMSO) and subsequently diluted) and 100 nM ATP (including ^33P-ATP) in 100 μl of reaction buffer ([…], pH7,5; 3 mM MgCl2; 3 mM MnCl2; 3 μM Na-Orthovanadat; 1 mM DTT) for 80 minutes at 22° C. The reactions are stopped by adding 100 μl stopping buffer (2% H3PO4 for 5 minutes) and are washed 3 times by using washing buffer (200 μl 1×PBS). Relying on the incorporation of ^33P into the peptide substrate, the detection is based on the adhesion of the phosphorylated peptide to the surface of scintillator-coated Flash plates (Perkin Elmer, USA; #SMP-103). This phosphorylation is measured by counting the plate for 60 sec. using a plate reader (Wallac Microbeta; Perkin Elmer, USA). By using this method the IC50 of the PKA inhibition is determined.

MDA-MB-468 cells [4] = assay: Cellular proliferation/cytotoxicity assay (Alamar Blue), MDA-MB-468; conditions: Homo sapiens, MDA-MB-468, 48 h, read-out: Anti-proliferative/cytotoxic activity: IC50 MDA468
Procedure: as §1

MCF7 cells [5] = test system: MCF7 cells
Procedure: as §1

MDA-MB-468 cells [6] = test system: MDA-MB-468 cells
Procedure: as §1

Compound | IC50 [1] [µM] | IC50 (GST-ΔPH-Akt1) [µM] | IC50 [2] [µM] | IC50 (MCF7 cells [3]) [µM] | IC50 (PKA) [µM] | IC50 (MDA-MB-468 cells [4]) [µM] | IC50 (MCF7 cells [5]) [µM] | IC50 (MDA-MB-468 cells [6]) [µM]
Cn1cc(-c2ccc(-c3cc4ccnn4c(Nc4ccc(NC(=O)c5ccc(CN)cc5)cc4)n3)cc2)cn1 [Example 61, 4-Aminomethyl-N-(4-{5-[4-(1-methyl-1H-pyrazol-4-yl)-phenyl]-pyrazolo[1,5-c]pyrimidin-7-ylamino}-phenyl)-benzamide] | ≤ 5 | ≤ 1.75 | ≤ 4.03 | ≤ 16.9 | 6.31 to 100 | ≤ 13.6 |  | 
Aminomethyl-N-(4-{5-[6-(2-hydroxy-ethoxy)-naphthalen-2-yl]-pyrazolo[1,5-c]pyrimidin-7-ylamino}-phenyl)-benzamide [Example 50] |  |  |  |  |  |  | ≤ 16.9 | ≤ 13.6
